From PubChem BioAssay AID1259407 (Chemical Carcinogenesis Research Information System (CCRIS), 2018) come the findings set out here.

For this data set, the system named is CCRIS mutagenicity, Ames/micronucleus/aberration tests. As to the kind of experiment: CCRIS mutagenicity studies.
[1] abbreviates: Test System: AMES SALMONELLA TYPHIMURIUM, Strain/Indicator: TA98, Metabolic Activation: RAT, LIVER, S-9, AROCLOR 1254, Method: STANDARD PLATE.
[2] abbreviates: Test System: AMES SALMONELLA TYPHIMURIUM, Strain/Indicator: TA1537, Metabolic Activation: NONE, Method: STANDARD PLATE.
Setting [3] is: Test System: AMES SALMONELLA TYPHIMURIUM, Strain/Indicator: TA98, Metabolic Activation: NONE, Method: STANDARD PLATE.
Where [4] appears, read: Test System: AMES SALMONELLA TYPHIMURIUM, Strain/Indicator: TA100, Metabolic Activation: NONE, Method: STANDARD PLATE.
Setting [5] is: Test System: AMES SALMONELLA TYPHIMURIUM, Strain/Indicator: TA100, Metabolic Activation: RAT, LIVER, S-9, AROCLOR 1254, Method: STANDARD PLATE.
Where [6] appears, read: Test System: AMES SALMONELLA TYPHIMURIUM, Strain/Indicator: TA1535, Metabolic Activation: NONE, Method: STANDARD PLATE.
Setting [7] is: Test System: AMES SALMONELLA TYPHIMURIUM, Strain/Indicator: TA1535, Metabolic Activation: RAT, LIVER, S-9, AROCLOR 1254, Method: STANDARD PLATE.
The mark [8] stands for this setting: Test System: AMES SALMONELLA TYPHIMURIUM, Strain/Indicator: TA1537, Metabolic Activation: RAT, LIVER, S-9, AROCLOR 1254, Method: STANDARD PLATE.
Setting [9] is: Test System: AMES SALMONELLA TYPHIMURIUM, Strain/Indicator: TA1538, Metabolic Activation: NONE, Method: STANDARD PLATE.
[10] abbreviates: Test System: AMES SALMONELLA TYPHIMURIUM, Strain/Indicator: TA1538, Metabolic Activation: RAT, LIVER, S-9, AROCLOR 1254, Method: STANDARD PLATE.
Setting [11] is: Test System: AMES SALMONELLA TYPHIMURIUM, Strain/Indicator: TA98, Metabolic Activation: NONE, Method: PREINCUBATION
Where [12] appears, read: Test System: AMES SALMONELLA TYPHIMURIUM, Strain/Indicator: TA100, Metabolic Activation: NONE, Method: PREINCUBATION
[13] abbreviates: Test System: AMES SALMONELLA TYPHIMURIUM, Strain/Indicator: TA102, Metabolic Activation: NONE, Method: STANDARD PLATE.

Calls of active or inactive are those of the source. How the calls were made is not given here.

Take `Cc1ccc([N+](=O)[O-])c(S(=O)(=O)O)c1[N+](=O)[O-]`: the mutagenic call was “inactive; negative” (End Point: In vitro chromosomal aberrations, Test System: V79 Chinese hamster fibroblasts, Metabolic Activation: None); “inactive; negative” (Test System: Ames Salmonella typhimurium, Strain/Indicator: TA98, Metabolic Activation: None, Method: Standard plate); “inactive; negative” (Test System: Ames Salmonella typhimurium, Strain/Indicator: TA98, Metabolic Activation: Rat, Liver, S-9, Method: Standard plate); “inactive; negative” (Test System: Ames Salmonella typhimurium, Strain/Indicator: TA100, Metabolic Activation: None, Method: Standard plate); “inactive; negative” (Test System: Ames Salmonella typhimurium, Strain/Indicator: TA100, Metabolic Activation: Rat, Liver, S-9, Method: Standard plate).

As for `Cn1c(N)nc2c3ccncc3ccc21`, the mutagenic call under setting [1] was “active; positive”.

Consider `CN(C)CCNC(=O)c1cccc2cc(-c3ccccc3)oc12`, for which the mutagenic call under setting [2] was “active; positive”.

With `COc1nc(C(Cl)(Cl)Cl)c(Cl)c(OC)c1Cl`, the mutagenic call (Test System: Mouse lymphoma, Strain/Indicator: L5178Y (tk+/tk-), Metabolic Activation: Rat, Liver, S-9, Aroclor 1254, Method: Suspension/plate) was “active; positive”.

Consider `Cn1c([N+](=O)[O-])cnc1C(O)c1cc(C(C)(C)C)cc(C(C)(C)C)c1O` (configuration not stated), for which the mutagenic call by setting is: under setting [3], “inactive; negative”; under setting [1], “inactive; negative”; under setting [4], “inactive; negative”; under setting [5], “inactive; negative”; under setting [6], “inactive; negative”; under setting [7], “inactive; negative”. The mutagenic call reads like this: under setting [2], “inactive; negative”; under setting [8], “inactive; negative”; under setting [9], “inactive; negative”; under setting [10], “inactive; negative”.

Turning to `[Cl][Mn][Cl]`, the mutagenic call runs as follows: under setting [11], “inactive; negative”; (Test System: AMES SALMONELLA TYPHIMURIUM, Strain/Indicator: TA98, Metabolic Activation: RAT LIVER S-9, PHENOBARBITAL AND BETA-NAPHTHOFLAVONE, Method: PREINCUBATION) “inactive; negative”; under setting [12], “inactive; negative”; (Test System: AMES SALMONELLA TYPHIMURIUM, Strain/Indicator: TA100, Metabolic Activation: RAT LIVER S-9, PHENOBARBITAL AND BETA-NAPHTHOFLAVONE, Method: PREINCUBATION) “inactive; negative”; under setting [13], “active; positive”; (Test System: AMES SALMONELLA TYPHIMURIUM, Strain/Indicator: TA1535, Metabolic Activation: NONE, Method: PREINCUBATION) “inactive; negative”. Moreover, the mutagenic call (Test System: AMES SALMONELLA TYPHIMURIUM, Strain/Indicator: TA1535, Metabolic Activation: RAT LIVER S-9, PHENOBARBITAL AND BETA-NAPHTHOFLAVONE, Method: PREINCUBATION) is “inactive; negative”; the mutagenic call (Test System: AMES SALMONELLA TYPHIMURIUM, Strain/Indicator: TA1537, Metabolic Activation: NONE, Method: PREINCUBATION) was “inactive; negative”; the mutagenic call (Test System: AMES SALMONELLA TYPHIMURIUM, Strain/Indicator: TA1537, Metabolic Activation: RAT LIVER S-9, PHENOBARBITAL AND BETA-NAPHTHOFLAVONE, Method: PREINCUBATION) was “inactive; negative”; the mutagenic call (Test System: AMES SALMONELLA TYPHIMURIUM, Strain/Indicator: TA1538, Metabolic Activation: NONE, Method: PREINCUBATION) was “inactive; negative”; the mutagenic call (Test System: AMES SALMONELLA TYPHIMURIUM, Strain/Indicator: TA1538, Metabolic Activation: RAT LIVER S-9, PHENOBARBITAL AND BETA-NAPHTHOFLAVONE, Method: PREINCUBATION) is “inactive; negative”; the mutagenic call (Test System: E. COLI, Strain/Indicator: WP2 UVRA, Metabolic Activation: NONE, Method: SPOT TEST) is “inactive; negative”. Also, the mutagenic call (Test System: E.COLI, Strain/Indicator: WP2UVRA, Metabolic Activation: NONE, Method: PREINCUBATION) is “inactive; negative” and the mutagenic call (Test System: E.COLI, Strain/Indicator: WP2UVRA, Metabolic Activation: RAT LIVER S-9, PHENOBARBITAL AND BETA-NAPHTHOFLAVONE, Method: PREINCUBATION) is “inactive; negative”.

Turning to `CC1COc2c(N3CCN(C)CC3)c(F)cc3c(=O)c(C(=O)O)cn1c23` (configuration not stated), the mutagenic call (End Point: AMES SALMONELLA TYPHIMURIUM, Test System: TA98, Metabolic Activation: NONE, Method: STANDARD PLATE) is “active; positive”; the mutagenic call (End Point: AMES SALMONELLA TYPHIMURIUM, Test System: TA100, Metabolic Activation: NONE, Method: STANDARD PLATE) was “inactive; negative”; the mutagenic call (Test System: AMES SALMONELLA TYPHIMURIUM, Strain/Indicator: HISG428, Metabolic Activation: NONE, Method: STANDARD PLATE) was “inactive; negative”; the mutagenic call (Test System: AMES SALMONELLA TYPHIMURIUM, Strain/Indicator: TA92, Metabolic Activation: NONE, Method: STANDARD PLATE) was “active; positive”; the mutagenic call under setting [13] was “active; positive”; the mutagenic call (Test System: AMES SALMONELLA TYPHIMURIUM, Strain/Indicator: TA103, Metabolic Activation: NONE, Method: STANDARD PLATE) is “active; positive”. The mutagenic call is “inactive; negative” (Test System: AMES SALMONELLA TYPHIMURIUM, Strain/Indicator: TA104, Metabolic Activation: NONE, Method: STANDARD PLATE); “active; positive” (Test System: AMES SALMONELLA TYPHIMURIUM, Strain/Indicator: TA2638, Metabolic Activation: NONE, Method: STANDARD PLATE); “inactive; negative” (Test System: AMES SALMONELLA TYPHIMURIUM, Strain/Indicator: TA2661, Metabolic Activation: NONE, Method: STANDARD PLATE); “active; positive” (Test System: AMES SALMONELLA TYPHIMURIUM, Strain/Indicator: TA2662, Metabolic Activation: NONE, Method: STANDARD PLATE); “inactive; negative” (Test System: AMES SALMONELLA TYPHIMURIUM, Strain/Indicator: TA2678, Metabolic Activation: NONE, Method: STANDARD PLATE); “inactive; negative” (Test System: CHINESE HAMSTER V-79, Strain/Indicator: V-79 (HPRT)/6-THIOGUANINE, Metabolic Activation: NONE). The mutagenic call is, setting by setting: (Test System: MOUSE LYMPHOMA, Strain/Indicator: L5178Y (HPRT)/6-THIOGUANINE, Metabolic Activation: NONE, Method: FLUCTUATION TEST) “inactive; negative”; (Test System: MOUSE LYMPHOMA, Strain/Indicator: L5178Y (TK+/TK-), Metabolic Activation: NONE, Method: FLUCTUATION TEST) “inactive; negative”.

As for `O=C(CCl)NCO`, the mutagenic call was “inactive; negative” (Test System: AMES SALMONELLA TYPHIMURIUM, Strain/Indicator: TA97, Metabolic Activation: NONE, Method: STANDARD PLATE); “inactive; negative” (Test System: AMES SALMONELLA TYPHIMURIUM, Strain/Indicator: TA97, Metabolic Activation: RAT, LIVER, S-9, AROCLOR 1254, Method: STANDARD PLATE); “inactive; negative” under setting [11]; “inactive; negative” under setting [3]; “inactive; negative” (Test System: AMES SALMONELLA TYPHIMURIUM, Strain/Indicator: TA98, Metabolic Activation: RAT, LIVER, S-9, AROCLOR 1254, Method: PREINCUBATION); “inactive; negative” under setting [1]. Besides, the mutagenic call reads like this: under setting [12], “inactive; negative”; under setting [4], “inactive; negative”; (Test System: AMES SALMONELLA TYPHIMURIUM, Strain/Indicator: TA100, Metabolic Activation: RAT, LIVER, S-9, AROCLOR 1254, Method: PREINCUBATION) “inactive; negative”; under setting [5], “inactive; negative”; under setting [6], “inactive; negative”; under setting [7], “inactive; negative”. Besides, the mutagenic call under setting [2] was “inactive; negative”, the mutagenic call under setting [8] is “inactive; negative”, the mutagenic call under setting [9] was “inactive; negative” and the mutagenic call under setting [10] was “inactive; negative”.
